Experimental data from patent publication US8722849B2, “Polypeptides” (Novo Nordisk A/S, priority 2011, dated 2014).
Starred links: 1 amine or outer side, 2 acyl side, 3 side chain; linkers in the order of their positions; H or OH if unused. Positions of bridges follow the written chain, without caps; N, C: chain ends. Residues, ends and D or L forms follow the SMILES beside them. *: point of attachment. C20 diacid = O=C(O)CCCCCCCCCCCCCCCCCCC(=O)*; γGlu = O=C(O)[C@H](CCC(=O)[*:2])N[*:1]

Tests used:
[1] = Assay (III) ThT fibrillation assay for physical stability; assay type: physicochemical
How it was run: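 Freshly prepared formulations, pH-adjusted, with 1 μM ThT; four or eight replicates incubated at 37 °C under 960 rpm orbital shaking. Fluorescence (ex 444/em 485 nm) read every 20 min; […]. Peptide concentration measured by RP-HPLC before and after the run.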

[2] = biological target: T1, human amylin receptor (amylin 3(a) receptor: human calcitonin receptor + RAMP-3) (Homo sapiens, UniProt O60896+P30988); assay: Assay (II)a functional CRE-luciferase assay, human amylin receptor; assay type: cell-based; conditions: Table 2; BHK amylin 3(a)-receptor/CRE-luc cells
T1 construct: expressed in transfected cells; host or cells: BHK570
T1 sequence (P30988 25-474): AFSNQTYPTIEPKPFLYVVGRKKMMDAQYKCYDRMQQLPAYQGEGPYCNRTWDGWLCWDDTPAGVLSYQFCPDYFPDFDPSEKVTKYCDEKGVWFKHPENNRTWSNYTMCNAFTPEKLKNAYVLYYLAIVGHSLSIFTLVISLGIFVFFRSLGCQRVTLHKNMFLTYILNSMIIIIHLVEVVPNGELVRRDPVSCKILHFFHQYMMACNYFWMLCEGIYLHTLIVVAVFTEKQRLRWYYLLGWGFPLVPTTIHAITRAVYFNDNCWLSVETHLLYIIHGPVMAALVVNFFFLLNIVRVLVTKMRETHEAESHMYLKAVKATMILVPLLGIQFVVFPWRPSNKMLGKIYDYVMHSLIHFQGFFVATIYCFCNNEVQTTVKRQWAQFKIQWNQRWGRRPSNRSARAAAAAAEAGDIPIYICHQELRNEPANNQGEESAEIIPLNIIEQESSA
T1 sequence (O60896 24-148 partner): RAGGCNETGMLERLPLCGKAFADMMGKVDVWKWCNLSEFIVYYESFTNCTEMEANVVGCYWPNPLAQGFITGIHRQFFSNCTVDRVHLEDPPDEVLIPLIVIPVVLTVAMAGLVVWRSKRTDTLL

SMILES: CC[C@H](C)[C@H](NC(=O)[C@@H]1CCCN1C(=O)CNC(=O)[C@H](Cc1ccccc1)NC(=O)[C@H](CC(N)=O)NC(=O)[C@H](CC(N)=O)NC(=O)[C@H](CO)NC(=O)[C@H](CO)NC(=O)[C@H](Cc1c[nH]cn1)NC(=O)[C@H](Cc1c[nH]cn1)NC(=O)[C@H](CC(C)C)NC(=O)[C@H](Cc1ccccc1)NC(=O)[C@H](CCC(=O)O)NC(=O)[C@H](C)NC(=O)[C@H](CC(C)C)NC(=O)[C@H](CCCNC(=N)N)NC(=O)[C@H](CCC(N)=O)NC(=O)[C@@H](NC(=O)[C@H](C)NC(=O)[C@@H]1CSSC[C@H](NC(=O)[C@H](CCCCN)NC(=O)[C@H](CCC(=O)O)NC(=O)CC[C@H](NC(=O)CCCCCCCCCCCCCCCCCCC(=O)O)C(=O)O)C(=O)N[C@@H](CC(N)=O)C(=O)N[C@@H]([C@@H](C)O)C(=O)N[C@@H](C)C(=O)N[C@@H]([C@@H](C)O)C(=O)N1)[C@@H](C)O)C(=O)N[C@@H](CC(C)C)C(=O)N1CCC[C@H]1C(=O)N1CCC[C@H]1C(=O)N[C@H](C(=O)N[C@@H](CC(N)=O)C(=O)N[C@H](C(=O)NCC(=O)N[C@@H](CO)C(=O)N[C@@H](CC(N)=O)C(=O)N[C@H](C(=O)N[C@@H](Cc1ccc(O)cc1)C(N)=O)[C@@H](C)O)C(C)C)[C@@H](C)O [Example 26, N-alpha-[(S)-4-Carboxy-4-(19-carboxynonadecanoylamino)butyryl]-Glu-[Glu14,His17]-pramlintide] ({C20 diacid-γGlu}-EKCNTATCATQRLAEFLHHSSNNFGPILPPTNVGSNTY-NH2; disulfide 3-8 (inferred); C-terminus assumed)
- ThT pH 4.0 lag time (h) ([1]; ThT fibrillation assay): 2 h
- EC50 [2]: 0.13 nM

SMILES: CC[C@H](C)[C@H](NC(=O)[C@@H]1CCCN1C(=O)CNC(=O)[C@H](Cc1ccccc1)NC(=O)[C@H](CC(N)=O)NC(=O)[C@H](CCC(N)=O)NC(=O)[C@H](CO)NC(=O)[C@H](CO)NC(=O)[C@H](Cc1c[nH]cn1)NC(=O)[C@H](Cc1c[nH]cn1)NC(=O)[C@H](CC(C)C)NC(=O)[C@H](Cc1ccccc1)NC(=O)[C@H](CCC(=O)O)NC(=O)[C@H](C)NC(=O)[C@H](CC(C)C)NC(=O)[C@H](CCCNC(=N)N)NC(=O)[C@H](CCC(N)=O)NC(=O)[C@@H](NC(=O)[C@H](C)NC(=O)[C@@H]1CSSC[C@H](NC(=O)[C@H](CCCCN)NC(=O)CC[C@H](NC(=O)CCCCCCCCCCCCCCCCCCC(=O)O)C(=O)O)C(=O)N[C@@H](CC(N)=O)C(=O)N[C@@H]([C@@H](C)O)C(=O)N[C@@H](C)C(=O)N[C@@H]([C@@H](C)O)C(=O)N1)[C@@H](C)O)C(=O)N[C@@H](CC(C)C)C(=O)N1CCC[C@H]1C(=O)N1CCC[C@H]1C(=O)N[C@H](C(=O)N[C@@H](CC(N)=O)C(=O)N[C@H](C(=O)NCC(=O)N[C@@H](CO)C(=O)N[C@@H](Cc1c[nH]cn1)C(=O)N[C@H](C(=O)N[C@@H](Cc1ccc(O)cc1)C(N)=O)[C@@H](C)O)C(C)C)[C@@H](C)O [Example 117, N-alpha-[(S)-4-Carboxy-4-(19-carboxynonadecanoylamino)butyryl]-[Glu14,His17,Gln21,His35)-pramlintide] ({C20 diacid-γGlu}-KCNTATCATQRLAEFLHHSSQNFGPILPPTNVGSHTY-NH2; disulfide 2-7 (inferred); C-terminus assumed)
- ThT pH 4.0 lag time ([1]; Table 8): >45 h
- ThT pH 4.0 lag time ([1]; Table 9): >45 h
- ThT pH 4.0 lag time ([1]; ThT fibrillation assay): >45 h
- ThT pH 4.0 lag time (h) ([1]; ThT fibrillation assay): >45 h
- EC50 [2]: 0.156 nM

SMILES: CC[C@H](C)[C@H](NC(=O)[C@@H]1CCCN1C(=O)CNC(=O)[C@H](Cc1ccccc1)NC(=O)[C@H](CC(N)=O)NC(=O)[C@H](CC(N)=O)NC(=O)[C@H](CO)NC(=O)[C@H](CO)NC(=O)[C@H](Cc1c[nH]cn1)NC(=O)[C@H](Cc1c[nH]cn1)NC(=O)[C@H](CC(C)C)NC(=O)[C@H](Cc1ccccc1)NC(=O)[C@H](CCC(=O)O)NC(=O)[C@H](C)NC(=O)[C@H](CC(C)C)NC(=O)[C@H](CCCNC(=N)N)NC(=O)[C@H](CCC(N)=O)NC(=O)[C@@H](NC(=O)[C@H](C)NC(=O)[C@@H]1CSSC[C@H](NC(=O)[C@H](Cc2c[nH]cn2)NC(=O)[C@H](Cc2c[nH]cn2)NC(=O)[C@H](Cc2c[nH]cn2)NC(=O)CC[C@H](NC(=O)CCCCCCCCCCCCCCCCCCC(=O)O)C(=O)O)C(=O)N[C@@H](Cc2c[nH]cn2)C(=O)N[C@@H]([C@@H](C)O)C(=O)N[C@@H](C)C(=O)N[C@@H]([C@@H](C)O)C(=O)N1)[C@@H](C)O)C(=O)N[C@@H](CC(C)C)C(=O)N1CCC[C@H]1C(=O)N1CCC[C@H]1C(=O)N[C@H](C(=O)N[C@@H](CC(N)=O)C(=O)N[C@H](C(=O)NCC(=O)N[C@@H](CO)C(=O)N[C@@H](Cc1c[nH]cn1)C(=O)N[C@H](C(=O)N[C@@H](Cc1ccc(O)cc1)C(N)=O)[C@@H](C)O)C(C)C)[C@@H](C)O [Example 32, N-alpha-[(S)-4-Carboxy-4-(19-carboxynonadecanoylamino)butyryl]-His-His-[His1,His3,Glu14,His17,His35]-pramlintide] ({C20 diacid-γGlu}-HHHCHTATCATQRLAEFLHHSSNNFGPILPPTNVGSHTY-NH2; disulfide 4-9 (inferred))
- ThT pH 4.0 lag time ([1]; ThT fibrillation assay): >45 h
- ThT pH 4.0 lag time (h) ([1]; ThT fibrillation assay): >45 h
- EC50 [2]: 0.603 nM

SMILES: CC[C@H](C)[C@H](NC(=O)[C@@H]1CCCN1C(=O)CNC(=O)[C@H](Cc1ccccc1)NC(=O)[C@H](CC(N)=O)NC(=O)[C@H](CC(N)=O)NC(=O)[C@H](CO)NC(=O)[C@H](CO)NC(=O)[C@H](Cc1c[nH]cn1)NC(=O)[C@H](CCCNC(=N)N)NC(=O)[C@H](CC(C)C)NC(=O)[C@H](Cc1ccccc1)NC(=O)[C@H](CCC(=O)O)NC(=O)[C@H](C)NC(=O)[C@H](CC(C)C)NC(=O)[C@H](CCCNC(=N)N)NC(=O)[C@H](CCC(N)=O)NC(=O)[C@@H](NC(=O)[C@H](C)NC(=O)[C@@H]1CSSC[C@H](NC(=O)[C@H](CCCCN)NC(=O)[C@H](CCC(=O)O)NC(=O)CC[C@H](NC(=O)CCCCCCCCCCCCCCCCCCC(=O)O)C(=O)O)C(=O)N[C@@H](CC(N)=O)C(=O)N[C@@H]([C@@H](C)O)C(=O)N[C@@H](C)C(=O)N[C@@H]([C@@H](C)O)C(=O)N1)[C@@H](C)O)C(=O)N[C@@H](CC(C)C)C(=O)N1CCC[C@H]1C(=O)N1CCC[C@H]1C(=O)N[C@H](C(=O)N[C@@H](CC(N)=O)C(=O)N[C@H](C(=O)NCC(=O)N[C@@H](CO)C(=O)N[C@@H](Cc1c[nH]cn1)C(=O)N[C@H](C(=O)N[C@@H](Cc1ccc(O)cc1)C(N)=O)[C@@H](C)O)C(C)C)[C@@H](C)O [Example 58, N-alpha-[(S)-4-Carboxy-4-(19-carboxynonadecanoylamino)butyryl]-Glu-[Glu14,Arg17,His35]-pramlintide] ({C20 diacid-γGlu}-EKCNTATCATQRLAEFLRHSSNNFGPILPPTNVGSHTY-NH2; disulfide 3-8 (inferred); C-terminus assumed)
- ThT pH 4.0 lag time ([1]; Table 8): >45 h
- ThT pH 4.0 lag time ([1]; Table 9): >45 h
- ThT pH 4.0 lag time ([1]; ThT fibrillation assay): >45 h
- ThT pH 4.0 lag time (h) ([1]; ThT fibrillation assay): >45 h
- EC50 [2]: 0.117 nM
